Article PMC8667045, “Into Deep Water: Optimizing BCL6 Inhibitors by Growing into a Solvated Pocket” (Journal of Medicinal Chemistry, 2021)
Several values for one entry are separate records, joined by “and”; a condition that tells them apart may be missing. Equal values may be shown once. Read-outs that look alike come from different tables or passages of the source.

Columns and labels:
BCL6 BTB domain [1] = target: T1, BCL6 BTB domain (Homo sapiens, UniProt P41182); test: biochemical
Description: Supplementary experimental: protein production, purification and crystallography
3C protease cleavage site.
used without cleaving the tag, as a 6His was needed to bind to the anti-6His-Terbium antibody. For
For both plasmid constructs described above, transformed BL21-AI E. coli cells were grown in LB
carried out at 18 °C for 18 hours. Cells were harvested by centrifugation (5500 g for 30 minutes at 4
oC) and stored at -80 °C.
Cells were re-suspended in a buffer composed of 20 mM Tris pH 8, 250 mM NaCl, 1 mM MgCl2, 0.5
Cells were lysed by sonication followed by centrifugation at 21,000 g for 45 minutes at 4 °C. […]
The final protein was assessed for purity
and molar mass by SDS-PAGE and high-resolution mass spectrometry, respectively.
directly eluted from the HisTrap FF column without HRV-3C treatment, and submitted to Superdex75
gel filtration as described above. […]
2. Supplementary experimental: biological assay conditions
IC50 values were determined using
a sigmoidal four-parameter logistic fit equation.

NMR solubility assay = type: physicochemical; conditions: HEPES buffer, 5% DMSO, room temperature
Description: 3. Supplementary experimental: physicochemical assays
The plate was then sealed and incubated at room temperature for 20 hours, without shaking. The plate was centrifuged again for 1 minute at […]
spectrometer equipped with a 5 mm TCI-CryoProbe. […]
deuterated solvent. […] All NMR data were acquired at the […]
contained 16k time-domain data points. Relaxation delay was set to 20 sec. […]

Measured logD7.4 = type: physicochemical; conditions: pH 7.4
OCI-Ly1 = test: 14 day cell viability assay (CellTiter Glo); type: cell-based; conditions: Homo sapiens, BCL6-high, 14 days of treatment
SU-DHL-4 = test: 14 day cell viability assay (CellTiter Glo); type: cell-based; conditions: Homo sapiens, BCL6-high, 14 days of treatment
SU-DHL-6 = test: 14 day cell viability assay (CellTiter Glo); type: cell-based; conditions: Homo sapiens, BCL6-high, 14 days of treatment
OCI-Ly3 = test: 14 day cell viability assay (CellTiter Glo); type: cell-based; conditions: Homo sapiens, BCL6-low, 14 days of treatment
MM.1S = test: 14 day cell viability assay (CellTiter Glo); type: cell-based; conditions: Homo sapiens, MM1.S; BCL6-low, 14 days of treatment
[2] = In vivo pharmacokinetic study in female Balb/c mice; conditions: mouse; for Cmax: blood
Description: 5. Supplementary experimental: in vivo PK and PD experiments
All procedures were in accordance with UK Home Office regulations under the Animals (Scientific […]
accordance with published guidelines17. Mice were allowed access to food and water ad libitum.
5.1In vivo pharmacokinetic studies
All experiments were conducted in accordance with the UKCC guidelines for animal experimentations17. Animals were adapted to laboratory conditions for at least 1 week prior to dosing and were allowed food and water ad libitum. CCT369347 (25) was administered iv or po (mouse, 0.1 mL/10 g in 10% DMSO, 5% tween 20 in saline); Blood samples were collected in […]
collection together with a standard curve and quality controls spiked in control blood. Samples were reconstituted in a Water:MeOH mixture containing internal standard as previously described […]
Following centrifugation, extracts were analyzed by multiple reaction monitoring of precursor and product ions by ESI-LCMS/MS on either a Waters (Milford, MA, USA) Xevo TQ-S or Sciex (Framingham, MA, USA) QTrap6500 following gradient separation with 0.1% […]
Quantitation was carried out with an external calibration. Quality controls were […]
Pharmacokinetic parameters were derived from noncompartmental analysis using Phoenix Pharsight. Non compartmental analysis (model 200

[3] = Protein binding by equilibrium dialysis; type: in vitro ADME, mouse
[4] = PAMPA passive permeability pH 7.4; conditions: pH 7.4, passive permeability Pe
BCL6 BTB domain [5] = target: T1, BCL6 BTB domain; test: SPR assay, immobilised BCL6 BTB protein (Biacore T200); type: binding; set-up: made in house; host or cells: E. coli BL21-AI
[6] = female, Balb/c, whole blood, iv, 1 mg/kg, IV 1 mg/kg, individual animals
[7] = female, Balb/c, whole blood, po, 5 mg/kg, PO 5 mg/kg, individual animals
[8] = IV 1 mg/kg, individual animals, 1 mg/kg
[9] = PO 5 mg/kg, individual animals, 5 mg/kg

Question: For `Cn1c(=O)cc(NC(C)(C)c2ncc(C3CC3)cn2)c2cc(Nc3ccnc(Cl)c3C#N)ccc21` [Compound 25, 2-Chloro-4-((4-((2-(5-cyclopropylpyrimidin-2-yl)propan-2-yl)amino)-1-methyl-2-oxo-1,2-dihydroquinolin-6-yl)amino)nicotinonitrile], which IC50 (BCL6 BTB domain [1]; BCL6 TR-FRET Geo Mean IC50, geometric mean of n replicates, supplement) is on record?
Answer: 30 nM

Question: And the IC50 (BCL6 BTB domain [1]; TR-FRET IC50 individual replicates, single replicates, italic values used 10nM BCL6, otherwise 1nM BCL6)?
Answer: 40 nM and 20 nM (2×) and 30 nM (2×)

Question: What about the “BCL6 TR-FRET pIC50 mean” value (BCL6 BTB domain [1]; mean of n replicates) of the same compound?
Answer: 7.58 and 7.583

Question: What about the IC50 (BCL6 BTB domain [1]; read-out: BCL6 TR-FRET Geo Mean IC50, geometric mean of n replicates, supplement) of the same compound?
Answer: 26.1 nM

Question: And the solubility at 20 h (NMR solubility assay)?
Answer: 30 µM and 29 µM

Question: What about the logD (Measured logD7.4) of the same compound?
Answer: 2.7

Question: What about the GI50 (OCI-Ly1) of the same compound?
Answer: 1680 nM

Question: What about the GI50 (SU-DHL-4) of the same compound?
Answer: 3450 nM

Question: What about the GI50 (SU-DHL-6) of the same compound?
Answer: 2550 nM

Question: What about the GI50 (OCI-Ly3) of the same compound?
Answer: > 10000 nM

Question: And the GI50 (MM.1S)?
Answer: > 10000 nM

Question: What about the clearance ([2]; female, Balb/c, whole blood, iv, 1 mg/kg, 1 mg kg^–1 i.v., mean, read-out: clearance (CL)) of the same compound?
Answer: 24 mL/min/kg

Question: What about the Cmax [2, 6] of the same compound?
Answer: 443 nM

Question: And the AUC(0-inf) [2, 6]?
Answer: 1.38 µM·h

Question: And the AUC(0-t) [2, 6]?
Answer: 1.28 µM·h

Question: And the clearance ([2]; female, Balb/c, whole blood, iv, 1 mg/kg, IV 1 mg/kg, individual animals, read-out: CL)?
Answer: 24.9 mL/min/kg

Question: And the Tmax ([2]; female, Balb/c, whole blood, iv, 1 mg/kg, IV 1 mg/kg, individual animals, read-out: Tmax)?
Answer: 0.08 h

Question: What about the Vd ([2]; female, Balb/c, whole blood, iv, 1 mg/kg, IV 1 mg/kg, individual animals, read-out: Vss) of the same compound?
Answer: 9.43 L/kg

Question: And the Cmax [2, 7]?
Answer: 347 nM

Question: What about the AUC(0-inf) [2, 7] of the same compound?
Answer: 1.44 µM·h

Question: And the AUC(0-t) [2, 7]?
Answer: 1.35 µM·h

Question: And the Tmax ([2]; female, Balb/c, whole blood, po, 5 mg/kg, PO 5 mg/kg, individual animals, read-out: Tmax)?
Answer: 2 h

Question: And the bioavailability ([2]; female, Balb/c, whole blood, po, 5 mg kg^–1 p.o. vs 1 mg kg^–1 i.v.)?
Answer: 29%

Question: And the “toxicity in PK study” value ([2]; 1 mg kg^–1 i.v. and 5 mg kg^–1 p.o.)?
Answer: no toxicity was observed

Question: And the Cmax [2, 8]?
Answer: 521 nM and 471 nM

Question: And the AUCINF [2, 8]?
Answer: 1.45 µM·h and 1.416 µM·h

Question: What about the AUClast [2, 8] of the same compound?
Answer: 1.395 µM·h and 1.344 µM·h

Question: And the CL [2, 8]?
Answer: 23.7 mL/min/kg and 24.2 mL/min/kg

Question: What about the HL_Lambda_z [2, 8] of the same compound?
Answer: 7.99 h and 5.93 h and 6.83 h

Question: And the Vss [2, 8]?
Answer: 6.96 L/kg and 7.81 L/kg

Question: And the Cmax [2, 9]?
Answer: 382 nM and 427 nM

Question: And the AUCINF [2, 9]?
Answer: 1.848 µM·h and 1.279 µM·h

Question: What about the AUClast [2, 9] of the same compound?
Answer: 1.534 µM·h and 1.233 µM·h

Question: What about the HL_Lambda_z [2, 9] of the same compound?
Answer: 1.33 h and 2.12 h and 1.14 h

Question: And the Tmax [2, 9]?
Answer: 1 h

Question: And the “free in mouse plasma” value [3]?
Answer: 1.3%

Question: And the PAMPA7.4 [4]?
Answer: 35 x10^-6 cms^-1

Question: What about the Kd (BCL6 BTB domain [5]; individual runs, Langmuir plot, 1:1 binding model, read-out: SPR KD) of the same compound?
Answer: 277 nM and 282 nM and 198 nM and 201 nM

Question: What about the Kd (BCL6 BTB domain [5]; mean of four runs, read-out: SPR KD mean value) of the same compound?
Answer: 236 nM

Question: What about the “SPR pKd” value (BCL6 BTB domain [5]; mean, +/- SEM where printed) of the same compound?
Answer: 6.63
